According to ChEMBL document CHEMBL4431368, “Development of single and mixed isoform selectivity PI3Kδ inhibitors by targeting Asn836 of PI3Kδ” (Bioorg Med Chem Lett, 2016):
Calls of active or inactive are those of the source. The calls are words filed in the database; no cut-off is given here.

Legend:
[1] = target: Phosphatidylinositol 4,5-bisphosphate 3-kinase catalytic subunit beta isoform (Homo sapiens, UniProt P42338); assay: Inhibition of PI3Kbeta (unknown origin) expressed in baculovirus expression system by kinase-glo luminescence assay
[2] = target: T1, Phosphatidylinositol 4,5-bisphosphate 3-kinase catalytic subunit delta isoform (Homo sapiens, UniProt O00329); assay: Inhibition of PI3Kdelta (unknown origin) expressed in baculovirus expression system by kinase-glo luminescence assay
T1 sequence (O00329 whole entry): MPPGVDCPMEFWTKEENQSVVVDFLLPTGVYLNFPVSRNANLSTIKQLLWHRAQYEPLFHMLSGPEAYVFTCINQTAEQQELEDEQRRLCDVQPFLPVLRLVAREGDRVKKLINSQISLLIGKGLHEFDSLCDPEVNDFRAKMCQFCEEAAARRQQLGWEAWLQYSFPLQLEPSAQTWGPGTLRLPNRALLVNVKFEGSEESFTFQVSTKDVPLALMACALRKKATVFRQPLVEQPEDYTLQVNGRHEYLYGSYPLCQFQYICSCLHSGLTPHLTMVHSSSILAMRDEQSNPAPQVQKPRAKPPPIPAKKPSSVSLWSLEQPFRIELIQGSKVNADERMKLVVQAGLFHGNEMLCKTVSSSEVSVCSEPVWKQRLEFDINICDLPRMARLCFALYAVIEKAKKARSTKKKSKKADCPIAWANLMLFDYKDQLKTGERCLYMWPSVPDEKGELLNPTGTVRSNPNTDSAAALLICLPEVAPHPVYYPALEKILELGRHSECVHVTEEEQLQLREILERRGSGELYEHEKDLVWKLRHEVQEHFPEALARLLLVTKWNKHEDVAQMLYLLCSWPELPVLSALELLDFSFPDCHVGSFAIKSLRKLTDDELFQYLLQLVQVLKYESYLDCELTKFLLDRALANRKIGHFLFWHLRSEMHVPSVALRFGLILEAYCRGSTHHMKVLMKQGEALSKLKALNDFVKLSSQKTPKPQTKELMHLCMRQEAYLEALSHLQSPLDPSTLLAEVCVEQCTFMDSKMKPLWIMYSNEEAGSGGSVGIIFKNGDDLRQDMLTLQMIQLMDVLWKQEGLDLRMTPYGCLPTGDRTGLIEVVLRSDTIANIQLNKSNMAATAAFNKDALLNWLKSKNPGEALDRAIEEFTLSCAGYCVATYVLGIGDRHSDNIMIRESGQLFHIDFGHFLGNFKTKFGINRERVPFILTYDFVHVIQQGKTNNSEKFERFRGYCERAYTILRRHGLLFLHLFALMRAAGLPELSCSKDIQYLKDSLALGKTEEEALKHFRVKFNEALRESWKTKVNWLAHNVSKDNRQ

[3] = target: Phosphatidylinositol 4,5-bisphosphate 3-kinase catalytic subunit alpha isoform (Homo sapiens, UniProt P42336); assay: Inhibition of PI3Kalpha (unknown origin) expressed in baculovirus expression system by kinase-glo luminescence assay
[4] = target: Phosphatidylinositol 4,5-bisphosphate 3-kinase catalytic subunit gamma isoform (Homo sapiens, UniProt P48736); assay: Inhibition of PI3Kgamma (unknown origin) expressed in baculovirus expression system by kinase-glo luminescence assay
[5] = target: Phosphatidylinositol 4,5-bisphosphate 3-kinase catalytic subunit delta isoform (Homo sapiens, UniProt O00329, N836D); assay: Inhibition of PI3Kdelta N836D mutant (unknown origin) expressed in Sf21 cells co-expressing p85 by kinase-glo luminescence assay
[6] = organism: Homo sapiens; assay: Selectivity ratio of IC50 for PI3Kdelta N836D mutant (unknown origin) expressed in Sf21 cells to IC50 for wild type PI3Kdelta (unknown origin) expressed in baculovirus expression system
[7] = target: T2, Phosphatidylinositol 4,5-bisphosphate 3-kinase catalytic subunit delta isoform (Homo sapiens) (UniProt O00329); assay: Inhibition of PI3Kdelta in human NAMALWA cells assessed as suppression of Akt S473 phosphorylation levels at […] after 2 hrs by Western blot analysis; type: cell-based
T2 sequence (whole entry): T1 sequence (O00329 whole entry)

[8] = Inhibition of PI3Kalpha Q859D mutant (unknown origin) expressed in baculovirus expression system by kinase-glo luminescence assay; design: species or system Homo sapiens
[9] = organism: Homo sapiens; assay: Selectivity ratio of IC50 for wild type PI3Kbeta (unknown origin) expressed in baculovirus expression system to IC50 for PI3Kbeta D862 mutant (unknown origin) expressed in baculovirus expression system
[10] = Inhibition of PI3Kbeta D862 mutant (unknown origin) expressed in baculovirus expression system by kinase-glo luminescence assay; design: species or system Homo sapiens

Sequence of Phosphatidylinositol 4,5-bisphosphate 3-kinase catalytic subunit beta isoform (P42338 whole entry, canonical isoform): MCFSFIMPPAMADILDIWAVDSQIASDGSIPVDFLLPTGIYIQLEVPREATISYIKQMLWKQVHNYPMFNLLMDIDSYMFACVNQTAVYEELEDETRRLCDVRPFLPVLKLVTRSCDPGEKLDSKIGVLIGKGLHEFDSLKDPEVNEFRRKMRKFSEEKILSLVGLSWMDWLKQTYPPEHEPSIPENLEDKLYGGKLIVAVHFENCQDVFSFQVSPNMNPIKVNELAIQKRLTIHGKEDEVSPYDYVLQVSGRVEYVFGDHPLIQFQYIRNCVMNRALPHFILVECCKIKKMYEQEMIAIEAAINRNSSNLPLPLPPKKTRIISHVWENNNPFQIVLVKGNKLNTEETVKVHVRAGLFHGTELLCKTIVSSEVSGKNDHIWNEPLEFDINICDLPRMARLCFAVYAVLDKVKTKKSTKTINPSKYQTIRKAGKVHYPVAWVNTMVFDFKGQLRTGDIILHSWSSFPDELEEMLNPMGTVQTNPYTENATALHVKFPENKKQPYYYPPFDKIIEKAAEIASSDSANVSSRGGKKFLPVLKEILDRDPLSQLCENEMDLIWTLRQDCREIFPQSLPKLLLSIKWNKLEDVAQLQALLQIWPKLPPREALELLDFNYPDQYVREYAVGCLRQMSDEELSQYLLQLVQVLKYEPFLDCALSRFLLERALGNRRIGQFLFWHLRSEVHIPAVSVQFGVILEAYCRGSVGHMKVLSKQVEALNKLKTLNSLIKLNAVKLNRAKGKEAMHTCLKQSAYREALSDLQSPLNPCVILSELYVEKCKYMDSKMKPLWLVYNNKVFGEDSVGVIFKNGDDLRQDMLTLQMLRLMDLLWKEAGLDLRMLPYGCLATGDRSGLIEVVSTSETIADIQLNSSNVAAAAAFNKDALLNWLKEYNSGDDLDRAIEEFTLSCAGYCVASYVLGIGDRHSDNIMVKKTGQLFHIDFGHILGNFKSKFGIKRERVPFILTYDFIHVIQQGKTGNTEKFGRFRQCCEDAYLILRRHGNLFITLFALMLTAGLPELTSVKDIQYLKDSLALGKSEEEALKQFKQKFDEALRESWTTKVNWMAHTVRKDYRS
Sequence of Phosphatidylinositol 4,5-bisphosphate 3-kinase catalytic subunit alpha isoform (P42336 whole entry, canonical isoform): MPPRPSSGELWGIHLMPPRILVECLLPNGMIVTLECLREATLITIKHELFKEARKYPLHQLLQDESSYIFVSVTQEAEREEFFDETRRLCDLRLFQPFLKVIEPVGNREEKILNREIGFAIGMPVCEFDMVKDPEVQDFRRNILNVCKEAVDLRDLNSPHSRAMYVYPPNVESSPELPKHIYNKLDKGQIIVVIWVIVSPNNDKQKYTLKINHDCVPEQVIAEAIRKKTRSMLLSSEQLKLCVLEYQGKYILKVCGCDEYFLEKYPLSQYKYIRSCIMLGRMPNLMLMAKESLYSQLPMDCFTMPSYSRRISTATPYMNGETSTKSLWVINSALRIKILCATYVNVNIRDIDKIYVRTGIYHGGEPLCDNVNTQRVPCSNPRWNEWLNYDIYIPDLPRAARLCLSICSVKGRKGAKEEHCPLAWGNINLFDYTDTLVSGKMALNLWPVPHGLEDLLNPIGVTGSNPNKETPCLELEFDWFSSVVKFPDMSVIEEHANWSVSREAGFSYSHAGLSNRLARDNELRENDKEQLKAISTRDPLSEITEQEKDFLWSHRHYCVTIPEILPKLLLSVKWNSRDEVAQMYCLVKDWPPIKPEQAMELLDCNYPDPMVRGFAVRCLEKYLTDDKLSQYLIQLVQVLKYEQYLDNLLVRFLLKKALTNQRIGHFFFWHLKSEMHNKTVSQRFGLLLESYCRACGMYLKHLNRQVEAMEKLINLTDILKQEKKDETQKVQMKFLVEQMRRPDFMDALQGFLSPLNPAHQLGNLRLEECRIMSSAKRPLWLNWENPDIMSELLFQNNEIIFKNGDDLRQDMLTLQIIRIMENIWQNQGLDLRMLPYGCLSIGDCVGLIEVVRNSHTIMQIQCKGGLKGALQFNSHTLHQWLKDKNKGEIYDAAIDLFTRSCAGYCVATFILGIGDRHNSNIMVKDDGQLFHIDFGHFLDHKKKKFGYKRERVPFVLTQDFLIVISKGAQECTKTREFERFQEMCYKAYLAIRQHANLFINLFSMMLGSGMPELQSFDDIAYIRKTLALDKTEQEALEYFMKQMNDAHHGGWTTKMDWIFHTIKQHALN
Sequence of Phosphatidylinositol 4,5-bisphosphate 3-kinase catalytic subunit delta isoform (Homo sapiens, UniProt O00329, N836D) (O00329 whole entry N836D, canonical isoform): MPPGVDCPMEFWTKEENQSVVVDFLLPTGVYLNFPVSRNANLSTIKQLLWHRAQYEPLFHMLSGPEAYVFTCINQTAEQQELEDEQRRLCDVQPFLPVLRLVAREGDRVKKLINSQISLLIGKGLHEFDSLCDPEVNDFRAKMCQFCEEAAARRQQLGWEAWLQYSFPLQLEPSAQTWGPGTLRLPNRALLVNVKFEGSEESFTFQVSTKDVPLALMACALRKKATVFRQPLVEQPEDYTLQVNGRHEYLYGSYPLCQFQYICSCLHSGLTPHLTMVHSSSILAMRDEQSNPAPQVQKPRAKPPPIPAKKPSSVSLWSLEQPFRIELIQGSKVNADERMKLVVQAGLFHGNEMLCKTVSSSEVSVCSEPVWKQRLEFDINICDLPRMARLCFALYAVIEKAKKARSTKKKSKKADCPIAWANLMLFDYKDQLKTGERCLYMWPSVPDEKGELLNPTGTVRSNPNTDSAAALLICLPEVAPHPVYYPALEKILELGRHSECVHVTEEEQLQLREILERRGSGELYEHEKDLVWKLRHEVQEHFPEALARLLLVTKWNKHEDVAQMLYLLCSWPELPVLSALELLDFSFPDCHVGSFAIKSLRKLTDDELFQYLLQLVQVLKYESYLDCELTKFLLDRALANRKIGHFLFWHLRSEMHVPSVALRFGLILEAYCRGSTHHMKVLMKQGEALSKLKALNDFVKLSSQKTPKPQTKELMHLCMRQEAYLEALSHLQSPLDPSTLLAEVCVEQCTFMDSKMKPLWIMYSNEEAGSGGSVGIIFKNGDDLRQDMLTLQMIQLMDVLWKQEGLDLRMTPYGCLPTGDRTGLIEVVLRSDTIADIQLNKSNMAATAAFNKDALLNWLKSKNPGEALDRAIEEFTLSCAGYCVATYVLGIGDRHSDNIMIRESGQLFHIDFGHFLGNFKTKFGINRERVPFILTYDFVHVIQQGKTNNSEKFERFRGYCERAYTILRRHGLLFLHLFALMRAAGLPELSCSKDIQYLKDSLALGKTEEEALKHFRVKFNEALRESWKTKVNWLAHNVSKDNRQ
Sequence of Phosphatidylinositol 4,5-bisphosphate 3-kinase catalytic subunit gamma isoform (P48736 whole entry, canonical isoform): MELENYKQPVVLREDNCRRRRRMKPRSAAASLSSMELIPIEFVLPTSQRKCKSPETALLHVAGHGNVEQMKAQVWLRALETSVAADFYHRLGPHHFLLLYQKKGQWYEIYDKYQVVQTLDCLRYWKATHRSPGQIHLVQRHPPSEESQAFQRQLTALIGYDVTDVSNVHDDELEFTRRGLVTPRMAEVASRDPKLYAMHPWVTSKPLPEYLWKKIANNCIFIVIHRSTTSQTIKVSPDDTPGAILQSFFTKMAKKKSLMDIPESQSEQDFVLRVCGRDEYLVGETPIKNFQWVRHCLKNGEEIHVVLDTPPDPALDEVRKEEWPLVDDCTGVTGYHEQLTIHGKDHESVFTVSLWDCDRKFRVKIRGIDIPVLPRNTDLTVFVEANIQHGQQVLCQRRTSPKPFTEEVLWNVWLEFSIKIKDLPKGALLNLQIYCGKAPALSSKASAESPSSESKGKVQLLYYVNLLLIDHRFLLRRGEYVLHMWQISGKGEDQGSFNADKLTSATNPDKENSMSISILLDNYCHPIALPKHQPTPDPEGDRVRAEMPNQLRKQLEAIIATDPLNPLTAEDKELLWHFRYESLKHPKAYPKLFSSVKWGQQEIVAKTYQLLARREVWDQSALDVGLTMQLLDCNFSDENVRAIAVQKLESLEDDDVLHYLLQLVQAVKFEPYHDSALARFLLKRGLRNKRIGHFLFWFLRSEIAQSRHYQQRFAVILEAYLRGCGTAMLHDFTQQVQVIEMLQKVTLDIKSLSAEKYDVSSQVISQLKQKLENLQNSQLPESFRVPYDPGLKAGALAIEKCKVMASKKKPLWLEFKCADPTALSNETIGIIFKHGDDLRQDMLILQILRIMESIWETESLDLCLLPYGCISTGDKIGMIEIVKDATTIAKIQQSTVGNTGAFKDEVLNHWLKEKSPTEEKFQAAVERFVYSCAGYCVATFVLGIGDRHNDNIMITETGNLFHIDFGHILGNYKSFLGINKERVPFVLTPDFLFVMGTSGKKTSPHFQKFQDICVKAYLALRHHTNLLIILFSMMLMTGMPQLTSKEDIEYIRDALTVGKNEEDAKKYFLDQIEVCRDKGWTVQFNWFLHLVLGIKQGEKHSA

N[C@H]1CC[C@@H](C(=O)N2CCN(c3nc(N4CCOCC4)nc(-n4c(C(F)F)nc5ccccc54)n3)CC2)CC1
IC50 [1]: 3360 nM | IC50 [2]: 143 nM | IC50 [3]: 3900 nM | IC50 [4]: > 10000 nM

NC(=O)CNC(=O)[C@H]1CCCN(c2nc(N3CCOCC3)nc(-n3c(C(F)F)nc4ccccc43)n2)C1
IC50 [1]: 24 nM | IC50 [2]: 34 nM | IC50 [3]: 32 nM | IC50 [4]: 194 nM | IC50 [5]: 95 nM | Ratio IC50 [6]: 3

O=C([C@@H]1CCCN1)N1CCN(c2nc(N3CCOCC3)nc(-n3c(C(F)F)nc4ccccc43)n2)CC1
inhibition [7]: Active

NC(=O)[C@H](CO)NC(=O)C1CCN(c2nc(N3CCOCC3)nc(-n3c(C(F)F)nc4ccccc43)n2)CC1
IC50 [1]: 162 nM | IC50 [2]: 29 nM | IC50 [3]: 67 nM | IC50 [4]: 521 nM

CC(C)[C@H](NC(=O)C1CCN(c2nc(N3CCOCC3)nc(-n3c(C(F)F)nc4ccccc43)n2)CC1)C(N)=O
IC50 [1]: 602 nM | IC50 [2]: 144 nM | IC50 [3]: 191 nM | IC50 [4]: 440 nM

O=C([C@@H]1CCCCN1)N1CCN(c2nc(N3CCOCC3)nc(-n3c(C(F)F)nc4ccccc43)n2)CC1
IC50 [1]: 59 nM | IC50 [2]: 69 nM | IC50 [3]: 2860 nM | IC50 [4]: 5530 nM | IC50 [5]: 24 nM

NC(=O)[C@H](Cc1ccccc1)NC(=O)C1CCN(c2nc(N3CCOCC3)nc(-n3c(C(F)F)nc4ccccc43)n2)CC1
IC50 [1]: 513 nM | IC50 [2]: 44 nM | IC50 [3]: 190 nM | IC50 [4]: 708 nM

O=C(CN1CCN(c2nc(N3CCOCC3)nc(-n3c(C(F)F)nc4ccccc43)n2)CC1)[C@H]1CCCN1
IC50 [1]: 60 nM | IC50 [2]: 52 nM | IC50 [3]: 1770 nM | IC50 [4]: 6080 nM | IC50 [5]: 4 nM

O=C([C@H]1CCCN1)N1CCN(c2nc(N3CCOCC3)nc(-n3c(C(F)F)nc4ccccc43)n2)CC1
inhibition [7]: Active | IC50 [3]: 2610 nM | IC50 [4]: 5860 nM | IC50 [5]: 9 nM

O=C(O)C1CCN(c2nc(N3CCOCC3)nc(-n3c(C(F)F)nc4ccccc43)n2)CC1
IC50 [1]: 217 nM | IC50 [2]: 38 nM | IC50 [3]: 183 nM | IC50 [4]: 64 nM

O=C([C@H]1CCCCN1)N1CCN(c2nc(N3CCOCC3)nc(-n3c(C(F)F)nc4ccccc43)n2)CC1
IC50 [1]: 775 nM | IC50 [2]: 50 nM | IC50 [3]: 2370 nM | IC50 [4]: 3590 nM | IC50 [5]: 36 nM

NC(=O)CNC(=O)[C@@H]1CCCN(c2nc(N3CCOCC3)nc(-n3c(C(F)F)nc4ccccc43)n2)C1
IC50 [1]: 166 nM | IC50 [2]: 38 nM | IC50 [3]: 83 nM | IC50 [4]: 445 nM

NC(=O)[C@H](Cc1ccccc1)NC(=O)[C@H]1CCCN(c2nc(N3CCOCC3)nc(-n3c(C(F)F)nc4ccccc43)n2)C1
IC50 [1]: 342 nM | IC50 [2]: 57 nM | IC50 [3]: 358 nM | IC50 [4]: 1980 nM

O=C(O)[C@H]1CCCN(c2nc(N3CCOCC3)nc(-n3c(C(F)F)nc4ccccc43)n2)C1
IC50 [1]: 215 nM | IC50 [2]: 42 nM | IC50 [3]: 40 nM | IC50 [4]: 231 nM

C[C@H](NC(=O)C1CCN(c2nc(N3CCOCC3)nc(-n3c(C(F)F)nc4ccccc43)n2)CC1)C(N)=O
IC50 [1]: 207 nM | IC50 [2]: 40 nM | IC50 [3]: 123 nM | IC50 [4]: 434 nM

NC(=O)[C@H](Cc1ccccc1)NC(=O)[C@@H]1CCCN(c2nc(N3CCOCC3)nc(-n3c(C(F)F)nc4ccccc43)n2)C1
IC50 [1]: 1720 nM | IC50 [2]: 263 nM | IC50 [3]: 908 nM | IC50 [4]: 1380 nM

C[C@@H](NC(=O)C1CCN(c2nc(N3CCOCC3)nc(-n3c(C(F)F)nc4ccccc43)n2)CC1)C(N)=O
IC50 [1]: 601 nM | inhibition [7]: Active | IC50 [8]: 100 nM | IC50 [2]: 44 nM | IC50 [3]: 114 nM | IC50 [4]: 536 nM | Ratio IC50 [9]: 5 | IC50 [5]: 1900 nM | IC50 [10]: 123 nM | Ratio IC50 [6]: 43

O=C(O)[C@@H]1CCCN(c2nc(N3CCOCC3)nc(-n3c(C(F)F)nc4ccccc43)n2)C1
IC50 [1]: 428 nM | IC50 [2]: 163 nM | IC50 [3]: 183 nM | IC50 [4]: 247 nM

O=C(C[C@@H]1CCCN1)N1CCN(c2nc(N3CCOCC3)nc(-n3c(C(F)F)nc4ccccc43)n2)CC1
IC50 [1]: 146 nM | IC50 [2]: 22 nM | IC50 [3]: 2050 nM | IC50 [4]: 5760 nM | IC50 [5]: 7 nM

NC(=O)CNC(=O)C1CCN(c2nc(N3CCOCC3)nc(-n3c(C(F)F)nc4ccccc43)n2)CC1
IC50 [1]: 329 nM | IC50 [2]: 66 nM | IC50 [3]: 98 nM | IC50 [4]: 496 nM | IC50 [5]: 171 nM | Ratio IC50 [6]: 2.6
